Reference: patent publication US20060069132A1, “Azolecarboxamide herbicides” (priority 2004, published 2006)
Where two headings read alike, the source gives them in different places.

Tests used:
barnyardgrass = assay: Test B flooded paddy test; type: in vivo, Echinochloa crus-galli; conditions: 1000 g ai/ha, scale 0 to 100 (0 no effect, 100 complete control); for Barnyardgrass plant response rating: visual rating, 13 to 15 days
Summary of the method: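 Read-out: visual comparison with controls, scored 0 to 100, where 100 means complete control and 0 no effect. Formulated chemicals were applied postemergence to plants 2–18 cm tall (1- to 4-leaf), or to flooded-paddy plants at the 2-leaf stage, then held 13 to 15 days under glass.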

lambsquarters = assay: Test B pre-/postemergence herbicide test; type: in vivo, Chenopodium album; conditions: for pest or weed control at 125 g/ha / pest or weed control at 500 g/ha: Chenopodium album, 336 h
Summary of the method: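 Response was scored visually 13 to 15 days after treatment against untreated greenhouse controls, 0 meaning no effect and 100 complete control. Formulations (solvent mixture plus surfactant) went onto soil after planting, onto foliage of 1- to 4-leaf plants, and onto 2-leaf plants in a flooded paddy set including rice and barnyardgrass.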

giant foxtail = assay: Test A pre-/postemergence herbicide test; type: in vivo, Setaria faberi; conditions: for pest or weed control at 500 g/ha / pest or weed control at 2000 g/ha: Setaria faberi, 240 h
Summary of the method: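 Sandy loam soil given preemergence directed spray; plants at 2 to 10 cm, one- to two-leaf stage, sprayed to runoff postemergence, compounds in non-phytotoxic solvent with surfactant. Injury rated visually versus untreated controls after about ten greenhouse days, 0 (no effect) to 100 (complete control); dash means not tested.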

soybean = assay: Test C pre-/postemergence herbicide test; type: in vivo, Glycine max
Summary of the method: (§1)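 Preemergence: seeds planted and treated with compound in non-phytotoxic solvent with surfactant; postemergence: plants at 2 to 18 cm (1- to 4-leaf stage) sprayed likewise. Kept in greenhouse 12 to 14 days, then visually rated against controls, 0 (no effect) to 100 (complete control).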

Surinam grass = assay: Test C pre-/postemergence herbicide test; type: in vivo, Urochloa decumbens
Summary of the method: as §1

rice = assay: Test C flooded paddy test; type: in vivo, Oryza sativa
Summary of the method: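 Injury scored visually against controls on a 0 (no effect) to 100 (complete control) scale, 12 to 14 days after treatment in greenhouse. Flooded paddy plants treated at 2-leaf stage; postemergence plants at 1- to 4-leaf stage, 2 to 18 cm tall.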

goosegrass = assay: Test C pre-/postemergence herbicide test; type: in vivo, Eleusine indica
Summary of the method: as §1

pigweed = assay: Test C pre-/postemergence herbicide test; type: in vivo, Amaranthus retroflexus
Summary of the method: as §1

[1] = postemergence, 125 g ai/ha, visual rating, scale 0 (no effect) to 100 (complete control)
[2] = preemergence, 125 g ai/ha, 0 to 100 scale, 0 is no effect, 100 is complete control
[3] = Postemergence, 500 g ai/ha, 0 to 100 scale, 0 no effect, 100 complete control
[4] = Postemergence, 2000 g ai/ha, 0 to 100 scale, 0 no effect, 100 complete control
[5] = Preemergence, 500 g ai/ha, visual rating, 0 to 100 scale (0 no effect, 100 complete control)
[6] = 125 g ai/ha, scale 0 (no effect) to 100 (complete control), visual, 12 to 14 days, preemergence
[7] = Postemergence, 500 g ai/ha, scale 0 to 100
[8] = Postemergence, 250 g ai/ha, scale 0 to 100, 0 no effect, 100 complete control
[9] = Preemergence, 500 g ai/ha, scale 0 to 100, 0 no effect, 100 complete control
[10] = postemergence, 125 g ai/ha, scale 0 to 100
[11] = postemergence, 62 g ai/ha, scale 0 to 100
[12] = 62 g ai/ha, scale 0 to 100 (0 no effect, 100 complete control)
[13] = 250 g ai/ha, scale 0 to 100 (0 no effect, 100 complete control), visual, 12 to 14 days, preemergence

## C#CCNC(=O)c1cccc(NC(=O)c2cc(C(C)(C)C)nn2CC)n1 [Compound 147]
barnyardgrass
  Barnyardgrass plant response rating: 60
lambsquarters; 500 g ai/ha, visual rating 0-100, 0 no effect, 100 complete control, preemergence
  Plant response rating, Lambsquarters: 100
lambsquarters; [1]
  Lambsquarters plant response rating: 80
lambsquarters; postemergence, 500 g ai/ha, visual rating, scale 0 (no effect) to 100 (complete control)
  Lambsquarters plant response rating: 90
lambsquarters; [2]
  Plant response rating, Lambsquarters: 90
Giant foxtail; [3]
  Foxtail, Giant plant response rating: 45
Giant foxtail; [4]
  Plant response rating, Foxtail, Giant: 90
Giant foxtail; [5]
  Foxtail, Giant plant response rating: 60
Giant foxtail; Preemergence, 2000 g ai/ha, visual rating, 0 to 100 scale (0 no effect, 100 complete control)
  Foxtail, Giant plant response rating: 95
soybean; 62 g ai/ha, preemergence
  Plant response rating (0 = no effect, 100 = complete control), Soybean: 0
soybean; [6]
  Plant response rating, Soybean: 0
soybean; [7]
  Soybean plant response rating: 70
soybean; [8]
  Plant response rating, Soybean: 40
soybean; [9]
  Soybean plant response rating: 5
soybean; [10]
  Plant response rating, Soybean: 35
soybean; [11]
  Plant response rating, Soybean: 10
Surinam grass; 62 g ai/ha, preemergence
  Plant response rating (0 = no effect, 100 = complete control), Surinam Grass: 0
Surinam grass; [6]
  Plant response rating, Surinam Grass: 10
Surinam grass; [7]
  Surinam Grass plant response rating: 60
Surinam grass; [8]
  Plant response rating, Surinam Grass: 30
Surinam grass; [9]
  Surinam Grass plant response rating: 60
Surinam grass; [10]
  Plant response rating, Surinam Grass: 0
Surinam grass; [11]
  Plant response rating, Surinam Grass: 0
rice; 16 g ai/ha, scale 0 to 100
  Rice plant response rating: 0
rice; 31 g ai/ha, scale 0 to 100
  Rice plant response rating: 0
rice; [12]
  Rice plant response rating: 0
rice; 125 g ai/ha, scale 0 to 100 (0 no effect, 100 complete control)
  Rice plant response rating: 0
goosegrass; 62 g ai/ha, preemergence
  Plant response rating (0 = no effect, 100 = complete control), Goosegrass: 0
goosegrass; [6]
  Plant response rating, Goosegrass: 20
goosegrass; [7]
  Goosegrass plant response rating: 5
goosegrass; [8]
  Plant response rating, Goosegrass: 5
goosegrass; [9]
  Goosegrass plant response rating: 80
goosegrass; [10]
  Plant response rating, Goosegrass: 0
goosegrass; [11]
  Plant response rating, Goosegrass: 0
pigweed; 62 g ai/ha, preemergence
  Plant response rating (0 = no effect, 100 = complete control), Pigweed: 20
pigweed; [6]
  Plant response rating, Pigweed: 90
pigweed; [7]
  Pigweed plant response rating: 100
pigweed; [8]
  Plant response rating, Pigweed: 100
pigweed; [9]
  Pigweed plant response rating: 100
pigweed; [10]
  Plant response rating, Pigweed: 90
pigweed; [11]
  Plant response rating, Pigweed: 90

## CCN1N=C(C(C)(C)C)CC1C(=O)Nc1cc(C(=O)N(C)C)ccc1F (stereo not drawn) [Compound 268, N-[5-[(dimethylamino)carbonyl]-2-fluorophenyl]-3-(1,1-dimethylethyl)-1-ethyl-4,5-dihydro-1H-pyrazole-5-carboxamide]
barnyardgrass; Echinochloa crus-galli, 336 h, read-out: Barnyardgrass plant response rating
  pest or weed control at 1000 g/ha: 90%
lambsquarters; post-emergence, postemergence, 125 g ai/ha, visual rating, scale 0 (no effect) to 100 (complete control), read-out: Lambsquarters plant response rating
  pest or weed control at 125 g/ha: 60%
lambsquarters; post-emergence, postemergence, 500 g ai/ha, scale 0 to 100, 0 is no effect, 100 is complete control, read-out: Lambsquarters plant response rating
  pest or weed control at 500 g/ha: 70%
lambsquarters; pre-emergence, 125 g ai/ha, 0 = no effect, 100 = complete control, read-out: Lambsquarters plant response rating (0 to 100 scale)
  pest or weed control at 125 g/ha: 100%
lambsquarters; pre-emergence, 500 g ai/ha, visual rating, 0 = no effect, 100 = complete control, read-out: Plant response rating, Lambsquarters
  pest or weed control at 500 g/ha: 100%
Giant foxtail; post-emergence, Postemergence, 500 g ai/ha, 0 to 100 scale, 0 no effect, 100 complete control, read-out: Foxtail, Giant plant response rating
  pest or weed control at 500 g/ha: 55%
Giant foxtail; post-emergence, Postemergence, 2000 g ai/ha, 0 to 100 scale, 0 no effect, 100 complete control, read-out: Plant response rating, Foxtail, Giant
  pest or weed control at 2000 g/ha: 80%
Giant foxtail; pre-emergence, Preemergence, 2000 g ai/ha, visual rating, 0 to 100 scale (0 no effect, 100 complete control), read-out: Foxtail, Giant plant response rating
  pest or weed control at 2000 g/ha: 100%
Giant foxtail; pre-emergence, preemergence, 500 g ai/ha, visual injury, 0 to 100 scale (0 no effect, 100 complete control), read-out: Foxtail, Giant plant response rating
  pest or weed control at 500 g/ha: 100%
soybean; Glycine max, pre-emergence, 62 g ai/ha, preemergence, scale 0 to 100, read-out: Plant response rating, Soybean
  plant injury at 62 g/ha: 60%
soybean; Glycine max, pre-emergence, 250 g ai/ha, scale 0-100, read-out: Plant response rating, Soybean
  plant injury at 250 g/ha: 90%
soybean; Glycine max, pre-emergence, 500 g ai/ha, scale 0 to 100 (0 no effect, 100 complete control), visual, 12 to 14 days, read-out: Plant response rating, Soybean
  plant injury at 500 g/ha: 95%
Surinam grass; Urochloa decumbens, pre-emergence, 312 h, 62 g ai/ha, preemergence, scale 0 to 100, read-out: Plant response rating, Surinam Grass
  pest or weed control at 62 g/ha: 70%
Surinam grass; Urochloa decumbens, pre-emergence, 312 h, 250 g ai/ha, scale 0-100, read-out: Plant response rating, Surinam Grass
  pest or weed control at 250 g/ha: 95%
Surinam grass; Urochloa decumbens, pre-emergence, 312 h, 500 g ai/ha, scale 0 to 100 (0 no effect, 100 complete control), visual, 12 to 14 days, read-out: Plant response rating, Surinam Grass
  pest or weed control at 500 g/ha: 100%
rice; Oryza sativa, 62 g ai/ha, scale 0 to 100, read-out: Rice plant response rating
  plant injury at 62 g/ha: 75%
rice; Oryza sativa, 125 g ai/ha, scale 0 to 100 (0 no effect, 100 complete control), read-out: Rice plant response rating
  plant injury at 125 g/ha: 85%
rice; Oryza sativa, 250 g ai/ha, scale of 0 to 100, 0 is no effect, 100 is complete control, read-out: Rice plant response rating
  plant injury at 250 g/ha: 90%
rice; Oryza sativa, 500 g ai/ha, visual rating after 12 to 14 days, scale 0 to 100 (0 no effect, 100 complete control), read-out: Plant response rating, Rice
  plant injury at 500 g/ha: 90%
goosegrass; Eleusine indica, pre-emergence, 312 h, 62 g ai/ha, preemergence, scale 0 to 100, read-out: Plant response rating, Goosegrass
  pest or weed control at 62 g/ha: 85%
goosegrass; Eleusine indica, pre-emergence, 312 h, 125 g ai/ha, scale 0 (no effect) to 100 (complete control), visual, 12 to 14 days, read-out: Plant response rating, Goosegrass
  pest or weed control at 125 g/ha: 90%
goosegrass; Eleusine indica, pre-emergence, 312 h, 250 g ai/ha, scale 0-100, read-out: Plant response rating, Goosegrass
  pest or weed control at 250 g/ha: 100%
goosegrass; Eleusine indica, pre-emergence, 312 h, 500 g ai/ha, scale 0 to 100 (0 no effect, 100 complete control), visual, 12 to 14 days, read-out: Plant response rating, Goosegrass
  pest or weed control at 500 g/ha: 100%
pigweed; Amaranthus retroflexus, pre-emergence, 62 g ai/ha, preemergence, scale 0 to 100, read-out: Plant response rating, Pigweed
  pest or weed control at 62 g/ha: 100%
pigweed; Amaranthus retroflexus, pre-emergence, 125 g ai/ha, scale 0 (no effect) to 100 (complete control), visual, 12 to 14 days, read-out: Plant response rating, Pigweed
  pest or weed control at 125 g/ha: 100%
pigweed; Amaranthus retroflexus, pre-emergence, 250 g ai/ha, scale 0-100, read-out: Plant response rating, Pigweed
  pest or weed control at 250 g/ha: 100%
pigweed; Amaranthus retroflexus, pre-emergence, 500 g ai/ha, scale 0 to 100 (0 no effect, 100 complete control), visual, 12 to 14 days, read-out: Plant response rating, Pigweed
  pest or weed control at 500 g/ha: 100%

## CCN1CCc2c(NC(=O)c3cc(C(C)(C)C)nn3CC)cccc2C1=O [Compound 63]
barnyardgrass
  Barnyardgrass plant response rating: 80
lambsquarters; Postemergence, 500 g ai/ha, visual rating after 13 to 15 days, scale 0 (no effect) to 100 (complete control)
  Plant response rating, Lambsquarters: 80
lambsquarters; [1]
  Lambsquarters plant response rating: 80
lambsquarters; [2]
  Plant response rating, Lambsquarters: 90
Giant foxtail; [3]
  Plant response rating, Foxtail, Giant: 50
Giant foxtail; [4]
  Plant response rating, Foxtail, Giant: 80
Giant foxtail; [5]
  Foxtail, Giant plant response rating: 95
Giant foxtail; Preemergence, 2000 g ai/ha, 0 to 100 scale, 0 no effect, 100 complete control
  Foxtail, Giant plant response rating: 100
soybean; 62 g ai/ha, preemergence
  Plant response rating (0 = no effect, 100 = complete control), Soybean: 0
soybean; [6]
  Plant response rating, Soybean: 0
soybean; [13]
  Plant response rating, Soybean: 10
soybean; [9]
  Soybean plant response rating: 70
Surinam grass; 62 g ai/ha, preemergence
  Plant response rating (0 = no effect, 100 = complete control), Surinam Grass: 0
Surinam grass; [6]
  Plant response rating, Surinam Grass: 5
Surinam grass; [13]
  Plant response rating, Surinam Grass: 45
Surinam grass; [9]
  Surinam Grass plant response rating: 60
rice; [12]
  Rice plant response rating: 0
rice; 125 g ai/ha, scale of 0 to 100, 0 is no effect, 100 is complete control
  Rice plant response rating: 0
rice; 250 g ai/ha, scale of 0 to 100, 0 is no effect, 100 is complete control
  Rice plant response rating: 15
rice; 500 g ai/ha, visual rating after 12 to 14 days, scale 0 to 100 (0 no effect, 100 complete control)
  Plant response rating, Rice: 50
goosegrass; 62 g ai/ha, preemergence
  Plant response rating (0 = no effect, 100 = complete control), Goosegrass: 10
goosegrass; [6]
  Plant response rating, Goosegrass: 45
goosegrass; [13]
  Plant response rating, Goosegrass: 60
goosegrass; [9]
  Goosegrass plant response rating: 90
pigweed; 62 g ai/ha, preemergence
  Plant response rating (0 = no effect, 100 = complete control), Pigweed: 100
pigweed; [6]
  Plant response rating, Pigweed: 100
pigweed; [13]
  Plant response rating, Pigweed: 100
pigweed; [9]
  Pigweed plant response rating: 100
